In ChEMBL document CHEMBL1125412, “NG-allyl- and NG-cyclopropyl-L-arginine: two novel inhibitors of macrophage nitric oxide synthase” (J Med Chem, 1992) one finds Ki and K inact data, which are given here for three compounds.

Each structure is given as a SMILES string.

In general, Ki refers to a dissociation constant, usually derived from enzyme kinetics or from competition with a known ligand. Low values mean higher affinity, high ones lower affinity.

Assay [1] can be described thus: Compound was tested for the inhibition of inducible murine macrophage nitric oxide(NO) synthase.
Assay [2] in a line: Compound was tested for the inhibition of inducible murine macrophage nitric oxide(NO) synthase, activity expressed as inhibitory constant.
Assay [3] in a line: Compound was tested for the inhibition of inducible murine macrophage expressed as inactivation constant.

`N=C(NCCC[C@H](N)C(=O)O)NC1CC1` registered a Ki in assay [1] of 7.7 µM.

With `CNC(=N)NCCC[C@H](N)C(=O)O` [TILARGININE], the Ki in assay [2] came out at 4.2 µM. Besides, the K inact in assay [3] came to 0.05 min⁻¹.

For the compound `C=CC/N=C(/N)NCCC[C@H](N)C(=O)O` [5-N-ALLYL-ARGININE], the results for the Ki in assay [2] and in assay [1] were 3.4 µM and 2.1 µM, respectively. Besides, in assay [3], the K inact was found to be 0.026 min⁻¹.
